Source: ChEMBL document CHEMBL1201862, “PubChem BioAssay data set” (2004)
Structures can show the parent of a compound that is named as a salt. Activity calls are given as the source filed them.

Key:
[1] = Shn3 3'UTR reporter inhibitors, dose response, cell-based, Clone20 osteoblasts, firefly luciferase, cherry-picked (AID 624132); format: functional;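 also: firefly luciferase luminescence from reporter carrying the Shn3 3'UTR in osteoblasts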
[2] = Luminescence Cell-Based Dose Retest to Confirm Inhibitors of Cancer Stem Cells. [Related pubchem assays (depositor defined):AID2717, AID2721]; format: functional; conditions: Homo sapiens
[3] = HepG2 cell cytotoxicity, dose response, cytotoxicity control for Shn3 inhibitor project, CellTiter-Glo, cherry-picked (AID 624134); format: functional, cell-based
[4] = control 3'UTR Renilla luciferase suppression, dose response, counter-screen for Shn3 inhibitor project, cell-based, Clone20-Shn3RL, cherry-picked (AID 624133); format: functional
[5] = molecular target: T1, Apoptotic protease-activating factor 1 (Homo sapiens, UniProt O14727); format: functional
T1 sequence (O14727 whole entry): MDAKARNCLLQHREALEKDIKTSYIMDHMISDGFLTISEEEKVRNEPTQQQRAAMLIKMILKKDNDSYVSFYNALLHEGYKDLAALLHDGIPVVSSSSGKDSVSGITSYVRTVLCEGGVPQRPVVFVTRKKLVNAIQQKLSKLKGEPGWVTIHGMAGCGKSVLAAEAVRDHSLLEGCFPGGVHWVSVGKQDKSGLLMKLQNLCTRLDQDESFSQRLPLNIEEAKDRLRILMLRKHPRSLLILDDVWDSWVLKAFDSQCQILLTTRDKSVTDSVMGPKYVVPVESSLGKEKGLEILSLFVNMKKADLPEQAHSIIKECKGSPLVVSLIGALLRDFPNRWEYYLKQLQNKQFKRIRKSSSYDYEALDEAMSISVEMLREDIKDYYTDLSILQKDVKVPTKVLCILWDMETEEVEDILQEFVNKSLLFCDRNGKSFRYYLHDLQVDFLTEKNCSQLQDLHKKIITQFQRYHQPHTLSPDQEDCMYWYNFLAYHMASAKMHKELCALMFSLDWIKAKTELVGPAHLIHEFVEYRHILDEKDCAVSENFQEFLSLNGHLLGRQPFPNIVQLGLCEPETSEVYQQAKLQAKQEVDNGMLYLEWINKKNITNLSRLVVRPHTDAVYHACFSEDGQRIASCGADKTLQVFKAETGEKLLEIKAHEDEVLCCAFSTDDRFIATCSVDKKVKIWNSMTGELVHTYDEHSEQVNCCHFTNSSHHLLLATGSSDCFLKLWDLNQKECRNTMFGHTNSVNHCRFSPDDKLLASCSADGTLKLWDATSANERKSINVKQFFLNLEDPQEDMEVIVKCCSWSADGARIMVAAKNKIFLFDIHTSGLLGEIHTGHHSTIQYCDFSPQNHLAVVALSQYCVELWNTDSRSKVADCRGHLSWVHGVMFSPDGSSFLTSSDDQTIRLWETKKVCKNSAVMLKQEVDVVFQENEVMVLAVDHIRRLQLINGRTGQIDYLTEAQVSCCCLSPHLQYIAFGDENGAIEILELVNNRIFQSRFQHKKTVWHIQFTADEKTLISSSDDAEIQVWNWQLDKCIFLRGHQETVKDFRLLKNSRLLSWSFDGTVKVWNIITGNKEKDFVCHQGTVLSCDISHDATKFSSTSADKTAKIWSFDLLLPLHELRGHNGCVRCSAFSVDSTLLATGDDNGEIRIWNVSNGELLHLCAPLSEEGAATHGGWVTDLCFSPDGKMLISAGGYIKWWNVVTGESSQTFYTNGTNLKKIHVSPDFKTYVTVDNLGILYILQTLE

[6] = molecular target: Glucose-6-phosphate 1-dehydrogenase (Homo sapiens, UniProt P11413); test: human G6PD enzyme inhibitors, dose response, selectivity assay for P. falciparum G6PD inhibitor project, biochemical, fluorescence (AID 504792); format: functional
Chain of Glucose-6-phosphate 1-dehydrogenase (P11413 whole entry): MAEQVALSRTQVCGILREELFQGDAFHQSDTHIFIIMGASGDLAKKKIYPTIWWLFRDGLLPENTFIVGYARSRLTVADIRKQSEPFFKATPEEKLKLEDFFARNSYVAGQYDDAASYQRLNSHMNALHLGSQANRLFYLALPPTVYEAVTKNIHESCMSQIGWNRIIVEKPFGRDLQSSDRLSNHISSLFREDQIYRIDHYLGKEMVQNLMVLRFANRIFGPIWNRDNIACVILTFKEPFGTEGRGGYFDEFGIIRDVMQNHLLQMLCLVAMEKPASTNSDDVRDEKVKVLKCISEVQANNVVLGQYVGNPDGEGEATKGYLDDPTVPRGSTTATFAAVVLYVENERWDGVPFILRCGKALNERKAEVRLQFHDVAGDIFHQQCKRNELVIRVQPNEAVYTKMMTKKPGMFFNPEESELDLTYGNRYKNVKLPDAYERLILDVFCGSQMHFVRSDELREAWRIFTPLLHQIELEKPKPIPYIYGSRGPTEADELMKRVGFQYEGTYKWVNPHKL

[7] = molecular target: Paired box protein Pax-8 (Homo sapiens, UniProt Q06710); test: inhibitors of PAX8-driven TPO luciferase reporter, dose response, RMG-I cells, cherry-pick (AID 687027); format: functional, cell-based;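 also: luciferase reporter driven by Pax8 target thyroperoxidase promoter measured by SteadyGlo luminescence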
Chain of Paired box protein Pax-8 (Q06710 whole entry): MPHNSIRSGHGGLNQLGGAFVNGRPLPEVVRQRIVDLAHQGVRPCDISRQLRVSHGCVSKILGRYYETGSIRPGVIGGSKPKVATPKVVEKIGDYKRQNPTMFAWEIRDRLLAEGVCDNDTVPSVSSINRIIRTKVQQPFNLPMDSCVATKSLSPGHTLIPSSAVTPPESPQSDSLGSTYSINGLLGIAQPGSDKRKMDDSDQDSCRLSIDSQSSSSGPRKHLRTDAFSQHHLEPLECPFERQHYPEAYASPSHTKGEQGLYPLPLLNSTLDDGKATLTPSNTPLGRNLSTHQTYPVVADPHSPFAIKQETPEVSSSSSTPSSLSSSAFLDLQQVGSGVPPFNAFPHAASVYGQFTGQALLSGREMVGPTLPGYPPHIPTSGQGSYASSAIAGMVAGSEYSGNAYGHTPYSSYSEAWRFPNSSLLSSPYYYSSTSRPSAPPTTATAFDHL

[8] = non-specific cell cytotoxicity, dose response, cytotoxicity control for PAX8 inhibitor project, plate reader, dry powder samples (AID 743021); format: functional, cell-based
[9] = NIH:OVCAR-3 ovarian cancer cell cytotoxicity, dose response, PAX8 inhibitor project, plate reader, dry powder samples (AID 743044); format: functional, cell-based
[10] = molecular target: Heat shock protein HSP 90-alpha (Homo sapiens, UniProt P07900); format: functional, organism-based
[11] = NIH-3T3 fibroblast cytotoxicity, dose response, cytotoxicity control, cell-based, fluorescence, Alamar Blue, secondary assay (AID 2327); format: functional;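 also: NIH-3T3 mouse fibroblasts cultured with fluconazole at 8 µg/mL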
[12] = C. albicans growth with fluconazole, confirmation, fluorescence, retest (AID 2467); format: functional, cell-based
[13] = Concentration-dependent survival of SW480 colon cancer line, luminescence detection with CellTiter-Glo, half-maximal inhibitory concentration (AID 1117338); format: functional
[14] = CellTiter-Glo luminescent dose response of DLD-1 viability loss (AID 1117352); format: functional
[15] = cytotoxicity toward HCT116 cells – cell-based, CellTiter-Glo luminescence, IC50, dose response (AID 1117332); format: functional; conditions: HCT-116
[16] = HCT116 cell viability decrease, GSK3B pretreatment – CellTiter-Glo, IC50, dose response (AID 1117339); format: functional; conditions: HCT-116
[17] = SNU-C1 cell viability reduction, dose response, CellTiter-Glo luminescence (AID 1117323); format: functional, cell-based
[18] = RKO cell viability reduction, dose response, CellTiter-Glo luminescence (AID 1117322); format: functional
[19] = cytotoxicity toward Colo320 cells – cell-based, CellTiter-Glo luminescence, IC50, dose response (AID 1117334); format: functional; conditions: COLO 320
[20] = cytotoxicity toward HT-29 cells – cell-based, CellTiter-Glo luminescence, IC50, dose response (AID 1117330); format: functional
[21] = molecular target: Genome polyprotein (dengue virus type 2, UniProt P29990); test: Dengue-2 NS5 methyltransferase inhibitors, primary screen, biochemical, confirmation dose response (AID 588689); format: functional
Chain of Genome polyprotein (P29990 2492-3391 limits assumed): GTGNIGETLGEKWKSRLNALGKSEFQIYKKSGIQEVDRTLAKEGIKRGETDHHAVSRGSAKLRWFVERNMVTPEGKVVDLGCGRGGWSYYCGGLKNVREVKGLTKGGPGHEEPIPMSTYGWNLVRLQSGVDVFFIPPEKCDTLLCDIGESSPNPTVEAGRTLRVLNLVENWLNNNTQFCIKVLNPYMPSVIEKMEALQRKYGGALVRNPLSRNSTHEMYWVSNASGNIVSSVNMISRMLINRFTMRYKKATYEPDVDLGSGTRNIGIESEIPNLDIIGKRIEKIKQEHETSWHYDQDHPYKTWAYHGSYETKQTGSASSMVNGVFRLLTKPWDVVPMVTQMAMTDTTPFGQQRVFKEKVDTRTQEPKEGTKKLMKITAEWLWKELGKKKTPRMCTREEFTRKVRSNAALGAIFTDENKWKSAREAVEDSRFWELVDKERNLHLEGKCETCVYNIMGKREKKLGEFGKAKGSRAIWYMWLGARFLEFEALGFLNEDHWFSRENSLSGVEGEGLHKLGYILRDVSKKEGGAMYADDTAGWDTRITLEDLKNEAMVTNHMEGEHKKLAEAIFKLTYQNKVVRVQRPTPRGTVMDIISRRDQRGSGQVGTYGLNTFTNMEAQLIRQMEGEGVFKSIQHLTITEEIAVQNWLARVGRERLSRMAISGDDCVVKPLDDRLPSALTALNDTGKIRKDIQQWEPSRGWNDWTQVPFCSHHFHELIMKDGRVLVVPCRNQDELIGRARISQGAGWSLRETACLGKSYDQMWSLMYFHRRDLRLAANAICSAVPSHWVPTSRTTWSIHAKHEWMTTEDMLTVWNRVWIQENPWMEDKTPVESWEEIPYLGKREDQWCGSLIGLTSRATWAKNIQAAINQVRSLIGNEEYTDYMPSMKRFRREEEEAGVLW

[22] = cytotoxicity in OVCAR8 ovarian cancer cells, dose response, PAX8 project, cell-based, plate reader, dry powder samples (AID 743197); format: functional; conditions: OVCAR-8

For `CCCSc1nnc(CSc2nc3ccccc3s2)n1-c1ccccc1`, the AC50 [1] was 7.05 µM (active), the AC50 [2] was 2.8 µM (active) and the AC50 [3] was > 70 µM (inactive). The AC50 [4] was 22.7 µM (active).
In the case of `CCOC(=O)c1c(C)n(-c2ccc(C)cc2)c2c(C(C(C)=O)C(=O)O)c(Br)c(O)c(O)c12` (stereo not drawn), the IC50 [5] is reported as 12.3 µM (active) and the IC50 [6] is reported as 26.5 µM (inactive).
For `O=C(Nc1ccccc1)N1CCCCN2[C@H](CO)[C@H](c3ccc(C#Cc4ccccc4)cc3)[C@H]2C1`, the AC50 [7] was 16.8 µM (active), the AC50 [8] was 35.5 µM (active) and the AC50 [9] was 20 µM (active).
For `CCc1ccc(OCC(=O)NNC(=S)NC(=O)C2CC2)c(Br)c1`, the AC50 [10] was 0.978 µM (active), the EC50 [11] was > 150 µM (inactive) and the EC50 [12] was 1.61 µM (active).
For `CCC(C(=O)OCCOCCN(CC)CC)c1ccccc1` (stereo not drawn) [BUTAMIRATE CITRATE], the IC50 [13] was > 20 µM (inactive), the IC50 [14] was > 20 µM (inactive) and the IC50 [15] was > 20 µM (inactive). For the same compound, the IC50 [16] was > 20 µM (inactive), the IC50 [17] was > 20 µM (inactive) and the IC50 [18] was > 20 µM (inactive). For the same compound, the IC50 [19] was > 20 µM (inactive) and the IC50 [20] was > 20 µM (inactive).
For `CC(=O)C1(C)CCC2C3C=C(C)C4=CC(=O)CCC4(C)C3CCC21C` (stereo not drawn), the AC50 [1] was 9.83 µM (active), the AC50 [3] was 45.2 µM (active) and the AC50 [4] was 29.1 µM (active).
For `CC(C)c1ccc(N2C(=O)C(Cl)=C(N3CCOCC3)C2=O)cc1`, the IC50 [21] was 69.4 µM (active).
In the case of `CC(C)CC#Cc1ccc2c(c1)O[C@H](CN(C)S(=O)(=O)c1ccc(F)cc1)[C@H](C)CN([C@H](C)CO)S2(=O)=O`, the AC50 [7] is reported as 14.5 µM (active), the AC50 [8] is reported as 61.2 µM (active) and the AC50 [9] is reported as 31.9 µM (active). For the same compound, the AC50 [22] was 57.1 µM (active).
For `COc1cc(/C=C2/SC(=S)N(CC(=O)O)C2=O)ccc1OC(=O)c1cccs1`, the IC50 [21] was 88.3 µM (active).
For `CC(C)Cn1cnc2c1c(=O)n(C)c(=O)n2C` [ISBUFYLLINE], the IC50 [13] was > 20 µM (inactive), the IC50 [14] was > 20 µM (inactive) and the IC50 [15] was > 20 µM (inactive). The IC50 [16] was > 20 µM (inactive), the IC50 [17] was > 20 µM (inactive) and the IC50 [18] was > 20 µM (inactive). The IC50 [19] was > 20 µM (inactive) and the IC50 [20] was > 20 µM (inactive).
For `Cc1ccc(S(=O)(=O)Oc2ccccc2C=C2C(=O)N(C)C(=O)N(C)C2=O)cc1`, the IC50 [21] was 37.8 µM (active).
